# Earlier results in patent publication US20130089529A1, “AGENT FOR OSTEOGENESIS USING SUBSTANCE-P AND PREPARATION PROCESS THEREOF” (UNIVERSITY-INDUSTRY COOPERATION GROUP OF KYUNGHEE UNIVERSITY, priority 2010, published 2013).
# How the values were obtained:
# MSCs = settings: in vitro 3-D collagen gel; by inducing matrix-degrading enzymes and inhibiting their inhibitors; previous study KR 10-2006-0037176
# CD29+ MSCs = settings: mice without wound, intravenous injection of Substance-P, versus non-injected mice; previous study KR 10-2006-0037176
substance,measurement,setting,value
Substance-P,Migration of MSCs in 3-D collagen gel,MSCs,stimulated migration of MSCs
same,"CD29+ MSCs mobilized into peripheral blood, relative to non-injected mice",CD29+ MSCs,approximately 15 times
